Source: US11530210B2, “Substituted heteroaromatic pyrazolo-pyridines and their use as GLUN2B receptor modulators” (JANSSEN PHARMACEUTICA NV, priority 2019, dated 2022)
Where a name gives a salt, the structure may show the parent alone.

biological target: T1, human GluN1/GluN2B NMDA receptors (Homo sapiens, UniProt Q13224); test: Calcium flux (FLIPR) assay on cloned human NR1/GluN2B ion channels expressed in mammalian cells (standard and HTS variants); assay type: cell-based; settings: cells expressing human GluN1/GluN2B, glutamate and glycine co-agonists
T1 construct: expressed in transfected cells
T1 sequence (Q13224 27-1484, other chains not shown): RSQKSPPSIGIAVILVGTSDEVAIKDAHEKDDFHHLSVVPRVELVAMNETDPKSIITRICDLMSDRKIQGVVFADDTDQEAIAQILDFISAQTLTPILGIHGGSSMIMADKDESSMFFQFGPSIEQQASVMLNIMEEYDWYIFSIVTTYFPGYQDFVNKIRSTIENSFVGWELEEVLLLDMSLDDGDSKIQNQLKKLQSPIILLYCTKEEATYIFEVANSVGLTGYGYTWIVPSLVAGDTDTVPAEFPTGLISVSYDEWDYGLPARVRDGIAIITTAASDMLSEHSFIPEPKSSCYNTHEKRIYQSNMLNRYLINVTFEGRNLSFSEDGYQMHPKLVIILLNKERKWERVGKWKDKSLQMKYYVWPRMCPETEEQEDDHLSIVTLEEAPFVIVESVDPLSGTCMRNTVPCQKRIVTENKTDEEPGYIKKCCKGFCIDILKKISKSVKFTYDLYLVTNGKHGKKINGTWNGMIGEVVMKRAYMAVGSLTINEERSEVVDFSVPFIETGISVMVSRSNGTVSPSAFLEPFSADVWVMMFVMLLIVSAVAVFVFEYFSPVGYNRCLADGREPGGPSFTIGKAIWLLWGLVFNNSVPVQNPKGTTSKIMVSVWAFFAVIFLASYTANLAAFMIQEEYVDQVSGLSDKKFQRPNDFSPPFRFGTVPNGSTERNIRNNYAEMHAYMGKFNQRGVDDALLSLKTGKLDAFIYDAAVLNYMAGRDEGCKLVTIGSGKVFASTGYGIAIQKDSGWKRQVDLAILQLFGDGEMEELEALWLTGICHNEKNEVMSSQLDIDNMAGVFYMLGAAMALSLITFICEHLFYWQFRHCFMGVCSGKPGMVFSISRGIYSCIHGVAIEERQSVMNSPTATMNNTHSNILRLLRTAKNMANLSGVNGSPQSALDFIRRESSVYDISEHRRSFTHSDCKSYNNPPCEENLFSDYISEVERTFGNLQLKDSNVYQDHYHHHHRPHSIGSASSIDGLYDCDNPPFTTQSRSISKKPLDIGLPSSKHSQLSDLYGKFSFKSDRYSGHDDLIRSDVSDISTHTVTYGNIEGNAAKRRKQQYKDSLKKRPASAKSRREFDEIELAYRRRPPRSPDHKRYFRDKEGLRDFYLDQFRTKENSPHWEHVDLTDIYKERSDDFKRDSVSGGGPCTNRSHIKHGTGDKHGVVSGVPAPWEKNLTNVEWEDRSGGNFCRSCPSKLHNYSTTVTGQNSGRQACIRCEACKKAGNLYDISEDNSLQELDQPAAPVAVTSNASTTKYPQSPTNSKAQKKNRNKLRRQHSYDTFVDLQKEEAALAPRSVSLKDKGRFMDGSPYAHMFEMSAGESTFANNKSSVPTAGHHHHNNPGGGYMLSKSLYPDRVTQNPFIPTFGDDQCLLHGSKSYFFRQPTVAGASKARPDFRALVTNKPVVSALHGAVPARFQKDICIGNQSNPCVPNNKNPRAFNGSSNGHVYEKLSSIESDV
Experimental: Effects of Test Articles on Cloned Human NR1/GuN2B Ion Channels Expressed in Mammalian Cells
NMDA receptors are ion channels that are highly permeable to Ca^2+ ions, rendering it possible to monitor NMDA receptor function using cell-based calcium flux assay. In this assay, co-agonists glutamate and glycine are added to cells heterologously expressing human GluN1/GluN2B NMDA receptors to initiate cellular Ca^2+ influx. The time course of the changes in intracellular calcium is measured using a fluorescent dye and a FLIPR (Fluorometric Imaging Plate Reader) device.
Twenty-four hours before measurements, the expression of the NMDA receptors in the stable cell line is induced with Tet-On inducible system in the presence of a non-selective NMDA receptor blocker. On the day of the experiment, cell culture media is carefully washed, and the cells are loaded with Calcium 5 Dye Kit (Molecular Devices) in dye loading buffer containing 137 mM NaCl, 4 mM KCl, 2 mM CaCl2, 0.5 mM MgCl2 (standard assay) or 1.5 mM MgCl2 (HTS assay), 10 mM HEPES and 5 mM D-glucose; pH 7.4. After 1 h incubation at the room temperature, the dye is washed away with the assay buffer (137 mM NaCl (standard assay) or 150 mM (HTS assay), 4 mM KCl (standard assay) or 3 mM (HTS assay), 2 mM CaCl2), 0.01 mM EDTA, 10 mM HEPES and 5 mM D-glucose; pH 7.4) In the FLIPR TETRA reader, various concentrations of the test compounds are added to the cells for 5 min while fluorescence is monitored to detect potential agonist activity. Next, co-agonists, glutamate and glycine are added for another 5 minutes. The concentration of glutamate corresponding to ˜EC40 (standard assay) or EC40 (HTS assay) is used to maximize the assay's signal window and ability to detect NMDA receptor antagonists and negative allosteric modulators. A saturating concentration (10 μM) of glycine is also present in the assay. A non-selective NMDA receptor antagonist, (+)MK-801 is used as a positive control for antagonist activity. The fluorescent signal in the presence of test compounds is quantified and normalized to the signal defined by the appropriate control wells.

SMILES	IC50 [nM]
FC(F)(F)c1cccc(-c2cnc3cnn(Cc4ncccn4)c3c2)c1 [Example 1, 1-(Pyrimidin-2-ylmethyl)-6-[3-(trifluoromethyl)phenyl]pyrazolo[4,3-b]pyridine]	800
Cc1ncc(Cn2ncc3ncc(-c4cccc(C(F)(F)F)c4)cc32)cn1 [Example 4, 1-[(2-Methylpyrimidin-5-yl)methyl]-6-[3-(trifluoromethyl)phenyl]pyrazolo[4,3-b]pyridine trifluoroacetate salt]	4670
FC(F)(F)c1cccc(-c2cnc3cnn(Cc4ccncn4)c3c2)c1 [Example 6, 1-(Pyrimidin-4-ylmethyl)-6-[3-(trifluoromethyl)phenyl]pyrazolo[4,3-b]pyridine hydrochloride salt]	819
FC(F)(F)c1cccc(-c2cnc3cnn(Cc4nnco4)c3c2)c1 [Example 7, 2-[[6-[3-(Trifluoromethyl)phenyl]pyrazolo[4,3-b]pyridin-1-yl]methyl]-1,3,4-oxadiazole]	748
Fc1ccc(-c2cnc3cnn(Cc4cn[nH]c4)c3c2)cc1OC(F)F [Example 11, 6-[3-(Difluoromethoxy)-4-fluoro-phenyl]-1-(1H-pyrazol-4-ylmethyl)pyrazolo[4,3-b]pyridine]	486
Cc1nnc(Cn2ncc3ncc(-c4ccc(F)c(C(F)F)c4)cc32)[nH]1 [Example 13, 6-[3-(Difluoromethyl)-4-fluoro-phenyl]-1-[(5-methyl-4H-1,2,4-triazol-3-yl)methyl]pyrazolo[4,3-b]pyridine]	1960
Cc1cc(Cn2ncc3ncc(-c4cccc(C(F)(F)F)c4)cc32)[nH]n1 [Example 14, 1-[(3-Methyl-1H-pyrazol-5-yl)methyl]-6-[3-(trifluoromethyl)phenyl]pyrazolo[4,3-b]pyridine]	4740
CNc1nnc(Cn2ncc3ncc(-c4ccc(F)c(OC(F)F)c4)cc32)s1 [Example 15, 5-[[6-[3-(Difluoromethoxy)-4-fluoro-phenyl]pyrazolo[4,3-b]pyridin-1-yl]methyl]-N-methyl-1,3,4-thiadiazol-2-amine]	> 2990
Nc1nnc(Cn2ncc3ncc(-c4ccc(F)c(C(F)F)c4)cc32)s1 [Example 16, 5-[[6-[3-(difluoromethyl)-4-fluoro-phenyl]pyrazolo[4,3-b]pyridin-1-yl]methyl]-1,3,4-thiadiazol-2-amine]	1050
Nc1nnc(Cn2ncc3ncc(-c4ccc(F)c(OC(F)F)c4)cc32)s1 [Example 18, 5-[[6-[3-(Difluoromethoxy)-4-fluoro-phenyl]pyrazolo[4,3-b]pyridin-1-yl]methyl]-1,3,4-thiadiazol-2-amine]	3550
CC(=O)Nc1nnc(Cn2ncc3ncc(-c4ccc(F)c(OC(F)F)c4)cc32)s1 [Example 19, N-(5-((6-(3-(Difluoromethoxy)-4-fluorophenyl)-1H-pyrazolo[4,3-b]pyridin-1-yl)methyl)-1,3,4-thiadiazol-2-yl)acetamide]	> 2990
FC(F)(F)c1cccc(-c2cnc3cnn(Cc4ncon4)c3c2)c1 [Example 20, 3-[[6-[3-(Trifluoromethyl)phenyl]pyrazolo[4,3-b]pyridin-1-yl]methyl]-1,2,4-oxadiazole]	751
FC(F)(F)c1cccc(-c2cnc3cnn(Cc4ccccc4)c3c2)c1 [Example 21, 1-Benzyl-6-[3-(trifluoromethyl)phenyl]pyrazolo[4,3-b]pyridine hydrochloride salt]	3280
Fc1cccc(Cn2ncc3ncc(-c4cccc(C(F)(F)F)c4)cc32)c1 [Example 22, 1-[(3-Fluorophenyl)methyl]-6-[3-(trifluoromethyl)phenyl]pyrazolo[4,3-b]pyridine hydrochloride salt]	1820
COc1ccc(Cn2ncc3ncc(-c4cccc(C(F)(F)F)c4)cc32)cc1 [Example 24, 1-[(4-Methoxyphenyl)methyl]-6-[3-(trifluoromethyl)phenyl]pyrazolo[4,3-b]pyridine hydrochloride salt]	7930
FC(F)(F)c1ccc(Cn2ncc3ncc(-c4cccc(C(F)(F)F)c4)cc32)cc1 [Example 25, 6-[3-(Trifluoromethyl)phenyl]-1-[[4-(trifluoromethyl)phenyl]methyl]pyrazolo[4,3-b]pyridine hydrochloride salt]	> 10000
Fc1cc(F)cc(Cn2ncc3ncc(-c4ccc(F)c(OC(F)F)c4)cc32)c1 [Example 30, 6-[3-(Difluoromethoxy)-4-fluoro-phenyl]-1-[(3,5-difluorophenyl)methyl]pyrazolo[4,3-b]pyridine]	536
Cc1ccc(Cn2ncc3ncc(-c4ccc(F)c(C(F)F)c4)cc32)s1 [Example 32, 6-[3-(Difluoromethyl)-4-fluoro-phenyl]-1-[(5-methyl-2-thienyl)methyl]pyrazolo[4,3-b]pyridine]	> 2990
Fc1ccc(Cn2ncc3ncc(-c4ccc(F)c(C(F)F)c4)cc32)s1 [Example 33, 6-(3-(Difluoromethyl)-4-fluorophenyl)-1-((5-fluorothiophen-2-yl)methyl)-1H-pyrazolo[4,3-b]pyridine]	1030
CC(F)(F)c1cccc(-c2cnc3cnn(Cc4cn[nH]c4)c3c2)c1 [Example 35, 6-[3-(1,1-Difluoroethyl)phenyl]-1-(1H-pyrazol-4-ylmethyl)pyrazolo[4,3-b]pyridine]	648
Cn1cnc(Cn2ncc3ncc(-c4cccc(C(F)(F)F)c4)cc32)c1 [Example 36, 1-[(1-Methylimidazol-4-yl)methyl]-6-[3-(trifluoromethyl)phenyl]pyrazolo[4,3-b]pyridine]	668

Other lines, results leading:

IC50 [nM]	SMILES
329	FC(F)(F)c1cccc(-c2cnc3cnn(Cc4cncc(Br)c4)c3c2)c1 [Example 2, 1-[(5-Bromo-3-pyridyl)methyl]-6-[3-(trifluoromethyl)phenyl]pyrazolo[4,3-b]pyridine]
483	N#Cc1cncc(Cn2ncc3ncc(-c4cccc(C(F)(F)F)c4)cc32)c1 [Example 3, 5-[[6-[3-(Trifluoromethyl)phenyl]pyrazolo[4,3-b]pyridin-1-yl]methyl]pyridine-3-carbonitrile]
237	FC(F)(F)c1cccc(-c2cnc3cnn(Cc4cnccn4)c3c2)c1 [Example 5, 1-(Pyrazin-2-ylmethyl)-6-[3-(trifluoromethyl)phenyl]pyrazolo[4,3-b]pyridine dihydrochloride salt]
78	Cc1cnc(Cn2ncc3ncc(-c4ccc(F)c(C)c4F)cc32)o1 [Example 9, 2-[[6-(2,4-Difluoro-3-methyl-phenyl)pyrazolo[4,3-b]pyridin-1-yl]methyl]-5-methyl-oxazole]
64	Oc1nnc(Cn2ncc3ncc(-c4ccc(F)c(C(F)F)c4)cc32)s1 [Example 17, 5-[[6-[3-(Difluoromethyl)-4-fluoro-phenyl]pyrazolo[4,3-b]pyridin-1-yl]methyl]-1,3,4-thiadiazol-2-ol]
400	N#Cc1cccc(Cn2ncc3ncc(-c4cccc(C(F)(F)F)c4)cc32)c1 [Example 23, 3-[[6-[3-(Trifluoromethyl)phenyl]pyrazolo[4,3-b]pyridin-1-yl]methyl]benzonitrile]
62	N#Cc1cccc(Cn2ncc3ncc(-c4ccc(F)c(C(F)F)c4)cc32)c1 [Example 26, 3-[[6-[3-(Difluoromethyl)-4-fluoro-phenyl]pyrazolo[4,3-b]pyridin-1-yl]methyl]benzonitrile]
394	Fc1cc(F)cc(Cn2ncc3ncc(-c4ccc(F)c(C(F)F)c4)cc32)c1 [Example 27, 6-[3-(Difluoromethyl)-4-fluoro-phenyl]-1-[(3,5-difluorophenyl)methyl]pyrazolo[4,3-b]pyridine]
125	N#Cc1cc(F)cc(Cn2ncc3ncc(-c4ccc(F)c(C(F)F)c4)cc32)c1 [Example 28, 3-[[6-[3-(Difluoromethyl)-4-fluoro-phenyl]pyrazolo[4,3-b]pyridin-1-yl]methyl]-5-fluoro-benzonitrile]
65	N#Cc1cccc(Cn2ncc3ncc(-c4ccc(F)c(OC(F)F)c4)cc32)c1 [Example 29, 3-[[6-[3-(Difluoromethoxy)-4-fluoro-phenyl]pyrazolo[4,3-b]pyridin-1-yl]methyl]benzonitrile]
389	N#Cc1cc(F)cc(Cn2ncc3ncc(-c4ccc(F)c(OC(F)F)c4)cc32)c1 [Example 31, 3-[[6-[3-(Difluoromethoxy)-4-fluoro-phenyl]pyrazolo[4,3-b]pyridin-1-yl]methyl]-5-fluoro-benzonitrile]
353	N#Cc1ccc(Cn2ncc3ncc(-c4ccc(F)c(C(F)F)c4)cc32)s1 [Example 34, 5-((6-(3-(Difluoromethyl)-4-fluorophenyl)-1H-pyrazolo[4,3-b]pyridin-1-yl)methyl)thiophene-2-carbonitrile]
